# Laboratory results published in patent US10239880B2, “Cyclopenta[d]pyrimidines and substituted cyclopenta[d]pyrimidines as antitubulin and microtubule targeting agents, monocyclic pyrimidines as tubulin inhibitors, and pyrrolopyrimidines as targeted antifolates and tubulin and multiple receptor tyrosine kinase inhibition and antitumor agents” (Duquesne University of the Holy Spirit, priority 2015, dated 2019).
# Entries after “also recorded” stand apart in the source; their conditions may differ. Read-outs that look alike come from different tables or passages of the source.
# Legend:
# [1] = Metabolite identification of 3 with human liver microsomes by LC/MS/MS; format: in vitro ADME
# Description: Compound 3 (Table 4), the para-methylthiophenyl substituted cyclopenta[d]pyrimidne, was designed to decrease the possible demethylation. […] Thus, the methylsulfinyl analog 4 (Table 4) and the methylsulfonyl analog 5 (Table 4) were also synthesized to determine their antiproliferative potencies. […] The electron donating, para-methylamino moiety of 8 (Table 1) and the para-dimethylamino moiety of 9 (Table 4) were designed as isosteric replacements of the O-methoxy moiety. According to the literature,^7 8 should be the major metabolite of 9. […] Compound 13 (Table 4), replaced the phenyl ring with a cyclohexyl ring to determine the importance of π-stacking interaction of the aniline ring. The variations proposed of compounds 10-13 would also serve as structural means to decrease the O-demethylation. […] Similarly, 9 could also function as a potential long acting agent, since the metabolites of both 3 and 9 are anticipated to be potent compounds against tumor cells. Section II Compounds Chemistry:
# FIG. 7a) HPLC spectra of 3 incubated with human liver microsomes at 0 and 60 min. Metabolites M1-M5 and parent 3 were illustrated on the spectra. FIG. 7b) MS and MS/MS spectrum of 3. FIG. 7c) MS and MS/MS spectrum of M1 (compound 5). FIG. 7d) MS and MS/MS spectrum of M2 (compound 4). FIG. 7e) Fragmentation of M1 and M2 (MS/MS 239.1340).
# [2] = test system: Parental OVCAR-8; assay: Antiproliferative effect, parental OVCAR-8 (SRB assay); format: cell-based; details: Homo sapiens, Table 10, n = 3, read-out: IC50 ± SD Parental OVCAR-8
# [3] = test system: P-gp Overexpressing NCI/ADR-RES; assay: Antiproliferative effect, P-gp overexpressing NCI/ADR-RES (SRB assay); details: Homo sapiens, read-out: IC50 ± SD P-gp Overexpressing NCI/ADR-RES
# [4] = test system: MDA-MB-435 cancer cells; assay: Antiproliferative effect in MDA-MB-435 cancer cells (SRB assay); format: cell-based; details: Table 2, read-out: MDA-MB-435 IC50
# [5] = test system: A-10 cells; assay: Microtubule depolymerization, cell-based phenotypic assay in A-10 cells
# [6] = test system: purified tubulin; assay: Inhibition of tubulin assembly (Section II); format: biochemical; details: Table 5; Section II compounds; read-out: Inhibition of tubulin assembly IC50 ± SD
# Method: The effects of 3, 4, 6, 7 and 9 on the polymerization of purified tubulin were evaluated (Table 5). This allows a study of the direct interaction of these compounds with their intracellular target. The ability of these compounds to bind to the colchicine site on tubulin was evaluated by measuring inhibition of [^3H]colchicine binding to tubulin.
# [7] = test system: Parental SK-OV-3; assay: Antiproliferative activity, parental SK-OV-3; format: cell-based; details: Homo sapiens, Table 6, read-out: IC50 ± SD Parental SK-OV-3
# [8] = test system: Pgp expressing SK-OV-3 MDR1-6-6; assay: Antiproliferative activity, Pgp expressing SK-OV-3 MDR1-6-6; format: cell-based; details: Homo sapiens
# [9] = test system: Parental HeLa; assay: Antiproliferative activity, parental HeLa; format: cell-based; details: Homo sapiens, Table 7, read-out: IC50 ± SD Parental HeLa
# Description: (§1) Another clinically relevant drug resistance mechanism of tubulin-targeting agents is the overexpression of the βIII isotype of tubulin.
# [10] = test system: tubulin (colchicine site); assay: Inhibition of [3H]colchicine binding to tubulin (Section III); details: 5 μM; Section III compounds
# [11] = target: PDGFR-β (Homo sapiens, UniProt P09619); assay: Kinase inhibition, whole-cell assay, PDGFR-β; format: cell-based; details: Table 1; IC50 ± SD; read-out: Kinase inhibition IC50 [whole-cell assays] PDGFR-β
# [12] = target: EGFR (Homo sapiens, UniProt P00533); assay: Kinase inhibition, whole-cell assay, EGFR; format: cell-based; details: Table 1; IC50 ± SD; read-out: Kinase inhibition IC50 [whole-cell assays] EGFR
# [13] = test system: NCI/ADR resistant tumor model; assay: NCI/ADR-RES xenograft trial (resistant tumor model); format: in vivo, mice; details: day 11, AG165 75 mg/kg
# Description: AG165 in MDA-MB-435 xenograph model:
# [14] = test system: A431
# [15] = test system: MDA-MB-435 xenograft; assay: MDA-MB-435 xenograft trial; details: for adverse effects / toxicity in xenograft trial: cumulative dosing; for antitumor effects: MDA-MB-435 xenograft
# [16] = test system: MDA-MB-231 xenograft; assay: MDA-MB-231 xenograft trial
# [17] = test system: β-III overexpressing HeLa; assay: Antiproliferative activity, β-III overexpressing HeLa; format: cell-based; details: Homo sapiens, HeLa; Table 7; read-out: IC50 ± SD β-III overexpressing HeLa
# Description: as §1
# [18] = IP 75 mg/kg, listed as AG 165, 75 mg/kg
# PDGFR-β, sequence (P09619 33-1106, species assumed): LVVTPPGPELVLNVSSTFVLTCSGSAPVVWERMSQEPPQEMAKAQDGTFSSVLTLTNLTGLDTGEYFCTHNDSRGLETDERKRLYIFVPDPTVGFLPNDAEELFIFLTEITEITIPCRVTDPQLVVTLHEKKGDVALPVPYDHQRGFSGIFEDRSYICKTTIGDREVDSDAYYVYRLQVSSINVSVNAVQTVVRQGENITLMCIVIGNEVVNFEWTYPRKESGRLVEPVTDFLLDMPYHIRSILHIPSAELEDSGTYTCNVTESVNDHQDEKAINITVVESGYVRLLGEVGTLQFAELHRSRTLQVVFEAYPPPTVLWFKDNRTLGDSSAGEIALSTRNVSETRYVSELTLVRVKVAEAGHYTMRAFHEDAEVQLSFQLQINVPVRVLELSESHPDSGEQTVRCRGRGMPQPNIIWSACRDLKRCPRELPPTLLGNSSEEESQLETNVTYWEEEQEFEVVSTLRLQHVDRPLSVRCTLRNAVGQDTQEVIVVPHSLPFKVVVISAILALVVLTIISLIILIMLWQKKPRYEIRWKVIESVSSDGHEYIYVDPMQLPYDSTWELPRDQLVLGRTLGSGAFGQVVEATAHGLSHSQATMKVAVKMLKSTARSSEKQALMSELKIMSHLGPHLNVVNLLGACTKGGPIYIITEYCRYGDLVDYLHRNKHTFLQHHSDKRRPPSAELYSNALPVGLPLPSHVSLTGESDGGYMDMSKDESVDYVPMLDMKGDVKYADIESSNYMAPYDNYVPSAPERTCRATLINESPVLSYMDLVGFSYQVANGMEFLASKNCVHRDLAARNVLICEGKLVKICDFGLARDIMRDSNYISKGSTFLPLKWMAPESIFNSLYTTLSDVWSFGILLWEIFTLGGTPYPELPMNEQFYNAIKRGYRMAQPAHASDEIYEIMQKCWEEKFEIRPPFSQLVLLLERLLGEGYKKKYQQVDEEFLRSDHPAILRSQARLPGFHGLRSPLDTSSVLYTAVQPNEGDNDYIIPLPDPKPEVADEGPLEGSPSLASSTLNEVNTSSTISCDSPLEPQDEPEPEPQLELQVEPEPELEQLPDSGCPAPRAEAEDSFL
# EGFR, sequence (P00533 25-1210, species assumed): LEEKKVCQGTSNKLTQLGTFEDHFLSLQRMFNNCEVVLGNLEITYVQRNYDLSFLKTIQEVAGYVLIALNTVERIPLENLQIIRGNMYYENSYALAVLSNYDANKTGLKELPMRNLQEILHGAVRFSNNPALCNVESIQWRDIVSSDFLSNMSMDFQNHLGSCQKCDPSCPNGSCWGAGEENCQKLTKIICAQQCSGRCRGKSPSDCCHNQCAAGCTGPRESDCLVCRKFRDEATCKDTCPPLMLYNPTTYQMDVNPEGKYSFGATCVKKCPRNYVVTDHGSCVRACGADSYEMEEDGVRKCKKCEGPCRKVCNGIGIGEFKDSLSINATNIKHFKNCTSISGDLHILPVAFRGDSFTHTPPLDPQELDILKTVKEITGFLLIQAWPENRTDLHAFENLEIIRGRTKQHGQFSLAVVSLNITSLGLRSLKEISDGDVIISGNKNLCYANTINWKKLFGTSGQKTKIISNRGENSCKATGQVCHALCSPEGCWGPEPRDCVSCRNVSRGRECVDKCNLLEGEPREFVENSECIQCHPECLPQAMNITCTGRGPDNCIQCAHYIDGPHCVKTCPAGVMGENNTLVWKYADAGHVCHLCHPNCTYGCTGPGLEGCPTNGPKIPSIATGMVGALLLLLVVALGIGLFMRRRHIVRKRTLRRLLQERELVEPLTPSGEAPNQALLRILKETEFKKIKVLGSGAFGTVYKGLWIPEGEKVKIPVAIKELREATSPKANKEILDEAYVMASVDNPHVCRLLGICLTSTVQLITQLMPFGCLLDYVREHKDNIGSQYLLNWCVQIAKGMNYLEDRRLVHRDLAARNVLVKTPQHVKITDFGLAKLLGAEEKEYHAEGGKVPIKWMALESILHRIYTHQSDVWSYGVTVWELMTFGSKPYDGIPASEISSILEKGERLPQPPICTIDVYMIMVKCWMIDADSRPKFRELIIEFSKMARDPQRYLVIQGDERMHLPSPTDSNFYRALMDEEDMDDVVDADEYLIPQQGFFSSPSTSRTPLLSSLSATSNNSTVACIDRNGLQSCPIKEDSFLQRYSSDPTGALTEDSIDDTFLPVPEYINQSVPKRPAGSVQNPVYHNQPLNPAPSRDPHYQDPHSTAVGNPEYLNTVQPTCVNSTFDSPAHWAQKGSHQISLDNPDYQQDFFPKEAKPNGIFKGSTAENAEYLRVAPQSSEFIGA
structure (smiles),measurement,setting,value
Cc1nc2c(c(N(C)c3ccc([S+](C)[O-])cc3)n1)CCC2 (centres unmarked) [Section II compound 4],"MS Peak Area in 60 min sample, HPLC area",[1],"2,199,500"
CC(=O)O[C@H]1C(=O)[C@@]2(C)[C@H]([C@H](OC(=O)c3ccccc3)[C@]3(O)C[C@H](OC(=O)[C@H](O)[C@@H](NC(=O)c4ccccc4)c4ccccc4)C(C)=C1C3(C)C)[C@]1(OC(C)=O)CO[C@@H]1C[C@@H]2O [paclitaxel],IC50,[2],10 nM
same,IC50,[3],5000 nM
"COc1ccc(/C=C\c2cc(OC)c(OC)c(OC)c2)cc1O [CA-4, combretastatin A-4]",IC50,"[4]; Homo sapiens, MDA-MB-435",3.47 ± 0.6 nM
same,EC50,"[5]; Rattus norvegicus, A10, Table 2, read-out: Microtubule depolymerization EC50",13.1 nM
same,IC50,"[8]; SK-OV-3, read-out: IC50 ± SD Pgp expressing SK-OV-3 MDR1-6-6",6.6 ± 1.3 nM
same,IC50,[9],4.7 ± 0.2 nM
same,Inhibition of colchicine binding (% inhibition ± SD),[10],97%
same,IC50,[2],6 ± 0.7 nM
same,IC50,[3],9 ± 2 nM
Cc1nc2c(c(N(C)c3ccc(S(C)(=O)=O)cc3)n1)CCC2 [Section II compound 5],"MS Peak Area in 60 min sample, HPLC area","[1]; Section II compound 3 incubated with human liver microsomes, 60 min","98,900"
same,"MS Peak Area in 60 min sample, Percentage (%)","[1]; Section II compound 3 incubated with human liver microsomes, 60 min, parent and metabolites",2.2%
CCCn1ccc2nc(C)nc(N(C)c3ccc(OC)cc3)c21.Cl [3•HCl],IC50,[11],> 200 nM
same,IC50,[12],89.3 ± 9.2 nM
same,IC50,[4],8.8 ± 3.4 nM
same,EC50,"[5]; Table 2, read-out: Microtubule depolymerization EC50",20 nM
same,tumor volume vs control treated mice,[13]; p=0.0003,significantly smaller
same,tumor volume vs PTX (10 mg/kg) treated mice,[13]; p=0.0333,significantly smaller
same,IC50,[14],107 ± 18 nM
same,final average tumor mass compared to the vehicle,"[15]; Day 15, IP 75 mg/kg",statistically significant (p<0.001) lower final average tumor mass
same,mouse weight change,"[15]; IP 75 mg/kg, compared to the vehicle",recoverable weight loss
same,adverse effects / toxicity in xenograft trial,"[15]; IP 75 mg/kg, 75 mg/kg",did not induce any noticeable adverse effects or toxicities; also recorded: no apparent toxicity
same,adverse effects / toxicity in xenograft trial,[15]; [18],no evidence of effects on either central or peripheral nervous system
same,tumor growth during the trial,"[15]; IP 75 mg/kg, nude mice",inhibited tumor growth
same,antitumor effects,"[15]; IP 75 mg/kg, 75 mg/kg",statistically significant antitumor effects (p<0.001)
same,antitumor effects,[15]; [18],highly statistically significant (p<0.001) antitumor effects
same,tumors vs control,"[15]; days 9, 11 and 15, 75 mg/kg, p<0.01 days 9 and 11, p<0.0001 day 15",significantly smaller
same,antitumor effects,"[16]; MDA-MB-231 xenograft, 3.HCl 75 mg/kg IP, paclitaxel 10 mg/kg IP",statistically significant antitumor effects comparable to paclitaxel
same,tumors vs control,"[16]; days 10 and 15, 75 mg/kg, p<0.01 and p<0.0001",significantly smaller
CSc1ccc(N(C)c2nc(C)nc3c2CCC3)cc1 [Compound 3],EC50,"[5]; Rattus norvegicus, A10, read-out: EC50 in A-10 cells (Concentration that causes 50% tubulin loss in A-10 cells), Table 4, Section II compounds",12.6 nM
same,IC50,[7],7.2 ± 0.6 nM
same,IC50,"[8]; SK-OV-3, Table 6, read-out: IC50 ± SD Pgp expressing SK-OV-3 MDR1-6-6",9.28 ± 0.42 nM
same,IC50,[9],6.95 ± 0.53 nM
same,IC50,[17],5.26 ± 0.78 nM
same,IC50,[2],500 ± 100 nM
same,IC50,[3],210 ± 10 nM
